Data from US10125142B2, “Method for purifying mitomycin C” (Kyowa Hakko Kirin Co., Ltd., priority 2015, dated 2018).

Test: Change in the number of particles in mitomycin C in a stability test under severe conditions (MFI DPA5200 particle quantification)
Assay type: physicochemical
Settings: for number of particles ≥10 μm in 10 mg of mitomycin C / number of particles ≥25 μm in 10 mg of mitomycin C: average of triplicates; for change in number of particles having a diameter of 10 μm or more / change in number of particles having a diameter of 25 μm or more: after 300-hour exposure to severe conditions (50° C.), result in words
Description: Change in the Number of Particles in Mitomycin C in a Stability Test under Severe Conditions
300 mg of each mitomycin C prepared in Example 1 and Comparative Examples 1 and 2 is separately placed into a vial, and stored at 50° C. under uncontrolled humidity. Sampling was performed after 0, 191 and 300 hours from the onset of the storage, and whether the number of particles would increase was examined according to the following section “Quantification of Particles in Mitomycin C”.
Quantification of Particles in Mitomycin C
10 mg of mitomycin C was weighed out accurately, water for injection was added to make up the volume to 25 mL exactly, and the resulting solution was used as a sample solution.
The particles in mitomycin C were analyzed with MFI DPA5200 (Protein Simple). Prior to the analysis of the sample solution, the passage in the analytical device was washed with water for injection to obtain the particle-free baseline. 1 mL of the sample solution was drawn into a pipette tip and then loaded on the sample holder. The sample solution was allowed to pass into the passage at a flow rate 0.1 mL/min to completely replace the liquid in the passage, and then the analysis of the sample; solution was started (volume for analysis: 0.61 mL).
The obtained data was filtered on MVAS 1.3 software to extract particles having an aspect ratio of less than 0.85 for the purpose of excluding bubbles. The number of particles having a diameter of 10 μm or more in 10 mg of mitomycin C and the number of particles having a diameter of 25 μm or more in 10 mg of mitomycin C were separately counted using Microsoft Excel.
The above procedure was repeated 3 times, and the average value of the triplicates was used as the quantitative value.

[1] = 191 hours storage at 50° C. under uncontrolled humidity
[2] = 300 hours storage at 50° C. under uncontrolled humidity
[3] = Initial (0 hours), storage at 50° C. under uncontrolled humidity

Row | SMILES | number of particles ≥10 μm in 10 mg of mitomycin C [1] | number of particles ≥25 μm in 10 mg of mitomycin C [1] | number of particles ≥10 μm in 10 mg of mitomycin C [2] | number of particles ≥25 μm in 10 mg of mitomycin C [2] | number of particles ≥10 μm in 10 mg of mitomycin C [3] | number of particles ≥25 μm in 10 mg of mitomycin C [3] | change in number of particles having a diameter of 10 μm or more | change in number of particles having a diameter of 25 μm or more
1 | CO[C@@]12[C@H](COC(N)=O)C3=C(C(=O)C(C)=C(N)C3=O)N1C[C@@H]1N[C@@H]12 [Comparative Example 1, Mitomycin C] | 7063 | 861 | 22527 | 3005 | 2118 | 246 | significant increase | significant increase
2 | CO[C@@]12[C@H](COC(N)=O)C3=C(C(=O)C(C)=C(N)C3=O)N1C[C@@H]1N[C@@H]12 [Comparative Example 2, Mitomycin C] | 279617 | 51953 | 301967 | 36216 | 3853 | 178 | significant increase | significant increase
3 | CO[C@@]12[C@H](COC(N)=O)C3=C(C(=O)C(C)=C(N)C3=O)N1C[C@@H]1N[C@@H]12 [Example 1, mitomycin C] | 3624 | 273 | 5683 | 314 | 3047 | 151 | almost no increase | almost no increase
